Data on five compounds can be found in US5242912A, “Cyclic anthranilic acid derivatives and process of preparing the same” (Kyorin Pharmaceutical Co., Ltd., priority 1989, dated 1993).

The test system of one test is vascular permeability. In words: Inhibition of increased vascular permeability (acetic acid i.p., Evans blue dye leakage). The format is in vivo, Male ddy mice. To be noted: 100 mg/kg p.o., N = 9. The method, then:
Inhibition of increased vascular permeability
Male ddy mice (6 weeks of age) were used in this experiment. Example 9 compound suspended in 5% gum arabic solution was administered p.o., 45 minutes before the i.v. injection of 1.0% Evans blue solution (0.1 ml/10 g B.W.). Immediately after the i.v. injection, 1.0% acetic acid solution was administered i.p. (0.1 ml/10 g B.W.). The mice were killed 30 minutes after the acetic acid injection. Peritoneal exudate was collected by washing out the peritoneal cavity with physiological saline and centrifuged at 3,000 r.p.m. After the centrifugation, spectrophotometry of the supernatant was measured at 630 nm. Results were expressed as dye leakage and percent inhibition.

For the next test, the target named is Bovine serum albumin (Bos taurus, UniProt P02769). As to the kind of experiment: biochemical.
The test system of another test is bone resorption. In words: Inhibitory action against bone resorption (45Ca release from embryo front arm bone, IL-1β). The format is cell-based. To be noted: Rattus norvegicus; 25 μg/ml, with interleukin-1β, 72 hours; read-out: Inhibitory rate against bone resorption (%). As for the experimental part:
Inhibitory action against bone resorption
According to Raisz et al method (J. Clin. Invest., 155, 103 (1965)), bone piece of front arm of […] labelled with radioactive calcium (^45 Ca) was prepared in order to measure bone resorption. That is, the radioactive calcium (^45 CaCl2; 200 μCi) was injected under the skin to the back of rats in the 17th day of pregnancy and two days later they were killed with exsanguination by cutting of the carotid artery thereof. After the embryos were picked up and washed with sterilized phosphated buffer solution, the bone of front arm was taken out, which was then rendered free of the attached muscle and cartilage of the both ends, and said piece of bone was cultivated in the culture medium of BGJb.
Next, according to the method of Tsuda et al (J. Bone Miner. Metab., 1, 207 (1986)), the effect of the present invention compound against the bone resorption was determined, which are described as follows.
The piece of bone was put on a milipore-filter, and was pre-cultivated, in a well with 24 holes plate accomodating 0.6 ml culture medium of BGJb, at 37° C. and under 5% carbon dioxide. After the precultivation for 24 hours, said bone with the filter were transferred into a test culture medium added with interleukin-1β (1L-1β) or with both 1L-1β and drugs and the cultivation was continued. After 72 hours cultivation in said test culture medium, 0.3 ml of the supernatant was taken out and ^45 Ca released from the piece of bone was determined. After the piece of bone was immersed in 0.3 ml of 1N hydrochloric acid for more than 1.5 hours, 10 ml of ACSII was added thereto and the radioactivity was determined. Furthermore, the activity of bone resorption was represented by the ratio (percentage) of ^45 Ca released in the supernatant of cultivation to the total radioactivity which had been contained in the piece of bone (the sum of radioactivities in the piece of bone and the supernatant of cultivation). […]

Bovine serum albumin, sequence (P02769 25-607): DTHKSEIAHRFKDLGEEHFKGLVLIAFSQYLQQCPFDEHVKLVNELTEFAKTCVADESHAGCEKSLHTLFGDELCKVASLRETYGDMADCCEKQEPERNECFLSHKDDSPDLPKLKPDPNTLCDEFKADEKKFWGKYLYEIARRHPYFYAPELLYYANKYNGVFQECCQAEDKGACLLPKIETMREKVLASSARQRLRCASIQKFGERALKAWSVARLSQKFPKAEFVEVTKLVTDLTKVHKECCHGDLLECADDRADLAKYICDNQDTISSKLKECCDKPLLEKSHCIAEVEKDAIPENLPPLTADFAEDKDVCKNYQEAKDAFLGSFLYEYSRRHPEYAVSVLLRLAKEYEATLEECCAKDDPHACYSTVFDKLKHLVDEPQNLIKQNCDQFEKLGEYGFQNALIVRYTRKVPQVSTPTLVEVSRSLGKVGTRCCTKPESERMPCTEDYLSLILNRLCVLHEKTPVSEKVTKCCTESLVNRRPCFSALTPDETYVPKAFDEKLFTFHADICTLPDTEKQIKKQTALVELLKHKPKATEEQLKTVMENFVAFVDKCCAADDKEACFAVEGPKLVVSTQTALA
Procedure for Bovine serum albumin: Inhibitory action against thermal denaturation of protein
Bovine serum albumin was dissolved into 1/15M phosphoric acid buffer solution, which was then adjusted to 0.7%. After adding the solution of the present invention compound thereto, it was heated at 65° C. for 7-8 minutes. After cooled, the absorbance at 660 nm was measured, compared with the absorbance of the reference to derive the inhibitory rate and then the concentration necessary to inhibit 50% was obtained.

The term IC50 denotes the concentration at which inhibition is half-maximal. As to `O=C(O)c1cc(Br)cc2c1NCCCC2` [Example 9, 7-Bromo2,3,4,5-tetrahydro-1H-1-benzazepine-9-carboxylic acid], in the test with vascular permeability (45 minutes before Evans blue, control 25.77 ± 1.81, *significantly different from control, p < 0.01), the “Dye leakage (mean ± S.E)” value amounted to 17.43 ± 1.38 µg/mL. Moreover, the “Inhibition (%)” value in the test with vascular permeability is listed as 32.3%. Further, the IC50 at Bovine serum albumin amounted to 132 µM. Regarding `O=C(O)c1cc([N+](=O)[O-])cc2c1NCCCC2` [Example 10, 7-Nitro-2,3,4,5-tetrahydro-1H-1-benzazepine-9-carboxylic acid], at Bovine serum albumin, half-maximal inhibition (IC50) required 71 µM.

As for `N#Cc1cc2c(c(C(=O)O)c1)NCCCC2` [Example 11 c), 7-Cyano-2,3,4,5-tetrahydro-1H-1-benzazepine-9-carboxylic acid], the inhibition at 25 µg/mL in the test with bone resorption amounted to 54%. The same measure, in the same setting: with `O=C(O)c1cc2c(c(C(=O)O)c1)NCCCC2` [Example 12, 2,3,4,5-Tetrahydro-1H-1-benzazepine-7,9-di-carboxylic acid] the figure was 84%; with `CC(C)Oc1ccc2c(=O)c(-c3ccccc3)coc2c1` [Ipriflavone, 7-isopropoxy isoflavone, reference compound], 58%.
